Several values for one entry are separate records, joined by “and”; a condition that tells them apart may be missing. Equal entries are not always repeated.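 Tested at 5 concentrations; 48 h exposure; 96-well plates; endpoints linearly interpolated, else capped at highest concentration. GI50 marks 50% less growth. Definition used: TGI = concentration required for complete inhibition of growth.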

Test systems include OVCAR-3 ovarian; DMS 114 small cell lung; NCI-H23 lung; UACC-62 melanoma; KM20L2 colon; SR leukemia; SN12K1 renal; DMS 273 small cell lung; HL-60(TB) leukemia; NCI/ADR-RES ovarian; BT-549 breast; SK-MEL-5 melanoma.
Common to all, as to experiment: inhibition of tumour cell growth, NCI panel, 48 h

Turning to `ClCCCN1CCN(CCCl)CC1`, the GI50 with OVCAR-3 ovarian was 84.3 µM; with NCI-H23 lung, 19.5 µM; in the assay with UACC-62 melanoma, 20 µM; in the assay on SR leukemia, 3.44 µM; in the assay with NCI/ADR-RES ovarian it was 66.3 µM. The TGI in the assay with OVCAR-3 ovarian is 430 µM; in the assay on DMS 114 small cell lung, 203 µM; with NCI-H23 lung, 586 µM; in the assay on UACC-62 melanoma, 92 µM; in the assay on KM20L2 colon, > 1000 µM; in the assay with SN12K1 renal it was 575 µM. The TGI in the assay on DMS 273 small cell lung was 475 µM; with HL-60(TB) leukemia, 62.3 µM and 141 µM; in the assay on NCI/ADR-RES ovarian it was 628 µM; in the assay on BT-549 breast, 423 µM; in the assay with SK-MEL-5 melanoma, 647 µM.

With `COc1cc(/C=C/c2ccc(OC)c(OC)c2)oc(=O)c1`, the TGI in the assay with OVCAR-3 ovarian, in the assay on DMS 114 small cell lung, in the assay on NCI-H23 lung, in the assay on UACC-62 melanoma, in the assay with KM20L2 colon and with SN12K1 renal was > 250 µM throughout. Also, the TGI is > 250 µM with DMS 273 small cell lung, > 184 µM in the assay on HL-60(TB) leukemia, > 250 µM with NCI/ADR-RES ovarian and > 250 µM in the assay with SK-MEL-5 melanoma.

In the case of `CCC1(O)C(=O)OCc2c1cc1n(c2=O)Cc2cc3cc4c(cc3nc2-1)OCO4` (stereo unspecified), the TGI with OVCAR-3 ovarian was 0.589 µM; in the assay on DMS 114 small cell lung, 0.0284 µM; with NCI-H23 lung it was < 0.0109 µM; in the assay with UACC-62 melanoma it was 0.0509 µM; with KM20L2 colon it was 0.738 µM; with SR leukemia, 3.79 µM. The TGI in the assay on SN12K1 renal is 0.331 µM; in the assay on DMS 273 small cell lung, 0.0151 µM; with HL-60(TB) leukemia it was 0.479 µM; with NCI/ADR-RES ovarian, 0.0277 µM; in the assay with BT-549 breast it was > 100 µM; in the assay with SK-MEL-5 melanoma it was 0.02 µM. In addition, the GI50 in the assay with BT-549 breast was < 0.01 µM.

`CC1[C@@]2(O[C@@H]3C=C4C5CCC6Cc7nc8c(nc7C[C@@]6(C)C5C[C@H](O)[C@@]4(C)[C@]13O)CC1CCc3c(cc4c5c3C(O)C[C@H]5[C@@H](C)C3(O4)OC(C)(C)CC3O)[C@]1(C)C8)O[C@@](C)(CO)C[C@@H]2O` (stereo partly specified): the TGI with OVCAR-3 ovarian is > 3.72 µM; in the assay on DMS 114 small cell lung, > 3.72 µM; in the assay on UACC-62 melanoma it was 0.748 µM; with KM20L2 colon, > 3.72 µM; in the assay with SN12K1 renal, 0.937 µM; in the assay with DMS 273 small cell lung it was 0.117 µM. Also, the TGI in the assay with HL-60(TB) leukemia, in the assay on NCI/ADR-RES ovarian and with SK-MEL-5 melanoma was > 3.72 µM in each case.

Take `COc1ccc2[nH]c3ccc4cc[n+](CCN5CCC(C6CCN(CC[n+]7ccc8ccc9[nH]c%10ccc(OC)cc%10c9c8c7)CC6)CC5)cc4c3c2c1`: the GI50 with OVCAR-3 ovarian was 42.6 µM; in the assay with NCI-H23 lung, 4.46 µM; with UACC-62 melanoma, 31 µM; with HL-60(TB) leukemia, 4.47 µM and 0.899 µM; in the assay on NCI/ADR-RES ovarian it was 35.2 µM; in the assay on SK-MEL-5 melanoma it was 6.7 µM. Moreover, the TGI with OVCAR-3 ovarian is 50 µM and > 76.2 µM; in the assay on DMS 114 small cell lung, 4.08 µM; in the assay on NCI-H23 lung it was > 100 µM; with UACC-62 melanoma, 50 µM and 17.7 µM; in the assay with KM20L2 colon, > 100 µM; in the assay on SR leukemia, 50 µM. Also, the TGI with SN12K1 renal was > 52 µM; in the assay on DMS 273 small cell lung, > 100 µM; in the assay on HL-60(TB) leukemia, 50 µM and 8.43 µM; in the assay on NCI/ADR-RES ovarian it was 50 µM and > 46.4 µM; in the assay on BT-549 breast, 50 µM; with SK-MEL-5 melanoma, 41.3 µM and 60.7 µM.

For `COc1ccc(C2CC(c3sc(Nc4ccc(C)cc4)nc3C)=NN2)cc1` (stereo unspecified), the TGI is 30.1 µM in the assay on OVCAR-3 ovarian; 30 µM with DMS 114 small cell lung; 30.7 µM with NCI-H23 lung; > 55.3 µM in the assay on UACC-62 melanoma; 31.3 µM in the assay with KM20L2 colon; 28.9 µM with SN12K1 renal. In addition, the TGI is 38.5 µM in the assay on DMS 273 small cell lung, 24.6 µM in the assay with HL-60(TB) leukemia, 32.4 µM in the assay with NCI/ADR-RES ovarian and 30.1 µM in the assay on SK-MEL-5 melanoma.

For `CN(C)CCNC(=O)c1cccc2c1C(=O)c1ccccc1C2=O`, the TGI in the assay on OVCAR-3 ovarian is 52.4 µM; in the assay on DMS 114 small cell lung it was 32.8 µM; in the assay on NCI-H23 lung, 50 µM; with UACC-62 melanoma, 47.9 µM; in the assay on KM20L2 colon it was 77 µM; with SN12K1 renal, > 100 µM. Also, the TGI was 56.6 µM in the assay with DMS 273 small cell lung, 57.8 µM in the assay on HL-60(TB) leukemia, 75.5 µM in the assay on NCI/ADR-RES ovarian and 40.2 µM in the assay on SK-MEL-5 melanoma.

These data come from PubChem BioAssay (NCI).
